What was measured:
AtINT2 = target: T1, AtINT2 (Arabidopsis thaliana, UniProt Q9C757); assay: inhibition of arsenic uptake into yeast cells, ICP-MS; type: cell-based; details: 250 μM As(III), 0-8 μg/mL myo-inositol, 24 h, 30 °C; substrate competition
T1 sequence (Q9C757 1-580): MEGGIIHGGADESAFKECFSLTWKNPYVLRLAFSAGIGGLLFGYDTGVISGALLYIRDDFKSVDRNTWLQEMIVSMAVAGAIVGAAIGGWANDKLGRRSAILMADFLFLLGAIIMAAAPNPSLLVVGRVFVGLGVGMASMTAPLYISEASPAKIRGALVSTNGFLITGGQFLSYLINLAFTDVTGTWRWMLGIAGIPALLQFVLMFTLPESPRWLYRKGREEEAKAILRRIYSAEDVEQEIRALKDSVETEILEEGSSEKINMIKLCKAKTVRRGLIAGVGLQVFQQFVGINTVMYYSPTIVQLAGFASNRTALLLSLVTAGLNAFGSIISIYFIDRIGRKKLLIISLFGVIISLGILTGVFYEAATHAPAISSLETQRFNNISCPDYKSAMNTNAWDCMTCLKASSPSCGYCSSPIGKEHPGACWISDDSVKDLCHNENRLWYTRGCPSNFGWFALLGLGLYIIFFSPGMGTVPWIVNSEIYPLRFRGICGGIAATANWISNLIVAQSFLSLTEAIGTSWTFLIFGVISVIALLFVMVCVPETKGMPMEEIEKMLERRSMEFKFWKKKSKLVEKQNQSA

AtINT4 = target: T2, AtINT4 (Arabidopsis thaliana, UniProt O23492); assay: as above; type: cell-based; details: 250 μM As(III), 0-8 μg/mL myo-inositol, 24 h, 30 °C; substrate competition
T2 sequence (O23492 1-582): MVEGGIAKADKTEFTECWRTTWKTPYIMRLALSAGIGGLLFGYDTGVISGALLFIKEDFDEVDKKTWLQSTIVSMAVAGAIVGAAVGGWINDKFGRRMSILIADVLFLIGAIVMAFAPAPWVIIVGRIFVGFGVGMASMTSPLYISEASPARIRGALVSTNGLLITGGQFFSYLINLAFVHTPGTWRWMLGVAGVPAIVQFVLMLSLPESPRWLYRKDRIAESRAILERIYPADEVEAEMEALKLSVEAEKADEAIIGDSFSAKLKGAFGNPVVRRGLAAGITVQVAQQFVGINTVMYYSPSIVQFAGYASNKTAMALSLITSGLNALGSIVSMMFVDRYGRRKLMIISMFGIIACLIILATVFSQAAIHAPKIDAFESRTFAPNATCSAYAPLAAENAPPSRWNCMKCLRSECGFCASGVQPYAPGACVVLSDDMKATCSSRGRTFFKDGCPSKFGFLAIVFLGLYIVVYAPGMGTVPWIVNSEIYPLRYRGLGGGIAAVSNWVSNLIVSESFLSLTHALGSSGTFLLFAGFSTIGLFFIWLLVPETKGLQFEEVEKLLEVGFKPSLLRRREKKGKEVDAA

## O[C@H]1[C@H](O)[C@@H](O)[C@H](O)[C@@H](O)[C@H]1O [myo-inositol]
AtINT2
  inhibition of arsenic uptake into yeast cells, ICP-MS: substrate competition inhibited arsenic accumulation in D458-1B expressing AtINT2 or AtINT4
AtINT4
  inhibition of arsenic uptake into yeast cells, ICP-MS: substrate competition inhibited arsenic accumulation in D458-1B expressing AtINT2 or AtINT4

— PMC4758254 (Nature plants, 2015)
